Values quoted from earlier work as cited in patent US20140148378A1, “ANTIBACTERIAL PEPTIDES” (THE REGENTS OF THE UNIVERSITY OF CALIFORNIA, priority 2012, published 2014).

Columns and labels:
[1] = from bioactive peptide databases / literature
[2] = lactoferricin versus human lactoferrin

| Substance | Known activity of overlapping literature bioactive peptide [1] | bactericidal effects relative to the parent protein [2] |
| --- | --- | --- |
| QELLLNPTHQYPVTQPLAPVHNPISV (listed as Homo sapiens) [SEQ ID NO: 506] | Antibacterial |  |
| QPTIPFFDPQIPK (listed as Homo sapiens) [SEQ ID NO: 505] | Immuno- |  |
| YQRRPAIAINNPYVPRTYYANPAVVRPHAQIPQRQYLPNSHPPTVVRRPNLHPSF (listed as Homo sapiens) [SEQ ID NO: 504] | Antibacterial |  |
| lactoferricin |  | 10-100 times |
